Laboratory results published in patent US9113629B2, “4-amino-6-(4-substituted-phenyl)-picolinates and 6-amino-2-(4-substituted-phenyl)-pyrimidine-4-carboxylates and their use as herbicides” (DOW AGROSCIENCES LLC, priority 2013, dated 2015).
Like-named read-outs stand apart in the source and are kept apart here.

Experiments:
[1] = test system: Key Broadleaf Weed and Crop Species; experiment: Post-emergent Test II herbicidal activity (Table 5); type: in vivo; conditions: post-emergence, 336 h, post-emergent, 14 days after application; for pest or weed control at 70 g/ha: 70 g ai/ha; for pest or weed control at 140 g/ha: 140 g ai/ha
Summary of the method: (§1)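 Plants grown in Metro-Mix 360 (pH 6.0–6.8) in a greenhouse (~15 h photoperiod, 23–29 °C day) to first or second true leaf stage, then sprayed with compound in acetone/DMSO/aqueous crop-oil-surfactant carrier at 187 L/ha by track sprayer. Injury visually scored 0–100% versus untreated plants after 14 d.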

[2] = test system: Key Grass and Sedge Weeds as well as Grass Crops; experiment: Post-emergent Test II herbicidal activity (Table 6); type: in vivo; conditions: post-emergence, 336 h; for pest or weed control at 70 g/ha: application rate 70 g ai/ha; for pest or weed control at 140 g/ha: application rate 140 g ai/ha
Summary of the method: as §1

[3] = ABUTH: velvetleaf (Abutilon theophrasti), read-out: Visual Growth Reduction (%) 14 Days After Application ABUTH
[4] = AMARE: redroot pigweed (Amaranthus retroflexus), read-out: Visual Growth Reduction (%) 14 Days After Application AMARE
[5] = BRSNN: oilseed-rape, canola (Brassica napus), read-out: Visual Growth Reduction (%) 14 Days After Application BRSNN
[6] = CHEAL: lambsquarters (Chenopodium album), read-out: Visual Growth Reduction (%) 14 Days After Application CHEAL
[7] = EPHHL: wild poinsettia (Euphorbia heterophylla), read-out: Visual Growth Reduction (%) 14 Days After Application EPHHL
[8] = HELAN: sunflower (Helianthus annuus), read-out: Visual Growth Reduction (%) 14 Days After Application HELAN
[9] = VIOTR: wild pansy (Viola tricolor), read-out: Visual Growth Reduction (%) 14 Days After Application VIOTR
[10] = CYPES: yellow nutsedge (Cyperus esculentus), read-out: Visual Growth Reduction (%) 14 Days After Application, CYPES
[11] = DIGSA: crabgrass (Digitaria sanguinalis), read-out: Visual Growth Reduction (%) 14 Days After Application, DIGSA
[12] = ECHCG: barnyardgrass (Echinochloa crus-galli), read-out: Visual Growth Reduction (%) 14 Days After Application, ECHCG
[13] = ORYSA: rice (Oryza sativa), read-out: Visual Growth Reduction (%) 14 Days After Application, ORYSA
[14] = SETFA: giant foxtail (Setaria faberi), read-out: Visual Growth Reduction (%) 14 Days After Application, SETFA
[15] = SORVU: grain sorghum (Sorghum vulgare), read-out: Visual Growth Reduction (%) 14 Days After Application, SORVU
[16] = TRZSS (wheat, Triticum aestivum), read-out: Visual Growth Reduction (%) 14 Days After Application, TRZSS
[17] = ZEAMX: maize, corn (Zea mays), read-out: Visual Growth Reduction (%) 14 Days After Application, ZEAMX

SMILES: Nc1cc(-c2c(F)cc(Br)c(F)c2F)nc(C(=O)O)c1Cl [Compound 162, 4-amino-6-(4-bromo-2,3,6-trifluorophenyl)-3-chloropicolinic acid]
- pest or weed control at 70 g/ha [1, 3]: 85 to 94%
- pest or weed control at 140 g/ha [1, 3]: 85 to 94%
- pest or weed control at 70 g/ha [1, 4]: 95 to 100%
- pest or weed control at 140 g/ha [1, 4]: 95 to 100%
- pest or weed control at 70 g/ha [1, 5]: 95 to 100%
- pest or weed control at 140 g/ha [1, 5]: 95 to 100%
- pest or weed control at 70 g/ha [1, 6]: 95 to 100%
- pest or weed control at 140 g/ha [1, 6]: 95 to 100%
- pest or weed control at 70 g/ha [1, 7]: 95 to 100%
- pest or weed control at 140 g/ha [1, 7]: 95 to 100%
- pest or weed control at 70 g/ha [1, 8]: 85 to 94%
- pest or weed control at 140 g/ha [1, 8]: 85 to 94%
- pest or weed control at 70 g/ha [1, 9]: 95 to 100%
- pest or weed control at 140 g/ha [1, 9]: 95 to 100%
- pest or weed control at 70 g/ha [2, 10]: 95 to 100%
- pest or weed control at 140 g/ha [2, 10]: 45 to 59%
- pest or weed control at 70 g/ha [2, 11]: 75 to 84%
- pest or weed control at 140 g/ha [2, 11]: 75 to 84%
- pest or weed control at 70 g/ha [2, 12]: 85 to 94%
- pest or weed control at 140 g/ha [2, 12]: 75 to 84%
- pest or weed control at 70 g/ha [2, 13]: 45 to 59%
- pest or weed control at 140 g/ha [2, 13]: 45 to 59%
- pest or weed control at 70 g/ha [2, 14]: 85 to 94%
- pest or weed control at 140 g/ha [2, 14]: 75 to 84%
- pest or weed control at 70 g/ha [2, 15]: 85 to 94%
- pest or weed control at 140 g/ha [2, 15]: 95 to 100%
- pest or weed control at 70 g/ha [2, 16]: 45 to 59%
- pest or weed control at 140 g/ha [2, 16]: 45 to 59%
- pest or weed control at 70 g/ha [2, 17]: 60 to 74%
- pest or weed control at 140 g/ha [2, 17]: 75 to 84%
